Laboratory results as given in patent publication US6476043B1, “Use of camptothecin derivatives, with reduced gastrointestinal toxicity” (Aventis Pharma S.A., priority 1998, dated 2002).

What was measured:
[1] = mice, CPT-11 40 mg/kg i.v.; CPT-11 group versus CPT-11/NaCl group, days 1 and 5
Protocol: The body weight is measured on days 1, 3, 6 and 8. The plasma samples for the toxicokinetic analysis are taken on days 1 and 5. […] The relative and absolute weights of the thymus, of the spleen and of the testicles are measured, and the complete gastrointestinal tract, the sternal bone marrow, the thymus, the spleen, the testicles and the epididymes are removed from all the mice and subjected to examination under a microscope.

CD1 male mice = assay: Study I: protective effect of oral sodium chloride solution on the intestinal toxicity of intravenous CPT-11; type: in vivo
Protocol: The body weight is recorded on days 1, 6, 11 and 13. […] The complete gastrointestinal tract is removed from all of the mice. The gastrointestinal tract of the mice which survived to the end of the observation period is subjected to examination under a microscope.

[2] = tested on: mammary adenocarcinoma MA16/C; assay: Study IV: effect of oral sodium chloride solution on the antitumour activity of intravenous CPT-11
Text: A Log tumour cell kill value of 0.7 corresponds to minimum activity, while a value greater than 2.8 corresponds to a high level of activity.

Protocol for female Beagle dogs: The animals are kept with no administration for 2 days after the final administration of sodium chloride at 9 g/l (up to day 9).
The body weight is recorded during the pretest period and on days 5 and 9. The animals are sacrificed and autopsied on day 9. Representative tissue samples taken from the gastrointestinal tract are removed from all the animals and subjected to examination under a microscope.

CCc1c2c(nc3ccc(OC(=O)N4CCC(N5CCCCC5)CC4)cc13)-c1cc3c(c(=O)n1C2)COC(=O)[C@]3(O)CC [CPT-11, irinotecan]
areas under the curve (AUC) [1]: identical
maximum plasma concentrations (Cmax) [1]: identical
loss of body weight (CD1 male mice; CPT-11 40 mg/kg i.v. days 6 to 10, CPT-11 group compared with CPT-11/NaCl group): greater
severity of microscopic intestinal lesions (loss of crypts, shortening of villi) (CD1 male mice; CPT-11 40 mg/kg i.v. days 6 to 10, autopsy day 13, small intestine): moderate to pronounced
mortality linked to the administration of CPT-11 (CD1 male mice; CPT-11 40 mg/kg i.v. days 6 to 10, observed on days 6 and 7, dead/total mice): 7/15
total cumulative dose at the maximum nontoxic dose ([2]; C3H/HeN female mice carrying MA16/C, i.v. for 5 consecutive days): 118 mg/kg
maximum loss of body weight ([2]; at the maximum nontoxic dose, day 11 (CPT-11 group), day 12 (CPT-11/NaCl group)): 10%
Log cell kill value ([2]; mammary adenocarcinoma MA16/C s.c. in C3H/HeN female mice, at the maximum nontoxic dose): 1.7
severity of gastrointestinal lesions (degeneration of the mucosa) (female Beagle dogs; CPT-11 20 mg/kg single i.v. dose on day 6, autopsy day 9): moderate to pronounced
redness on the mucosa of the large intestine (frequency) (female Beagle dogs; CPT-11 20 mg/kg single i.v. dose, CPT-11 group compared with CPT-11/NaCl group): more common

CCc1c2c(nc3ccc(O)cc13)-c1cc3c(c(=O)n1C2)COC(=O)[C@]3(O)CC [SN-38]
areas under the curve (AUC) [1]: identical
maximum plasma concentrations (Cmax) [1]: identical
